Here are results for 26 compounds from ChEMBL document CHEMBL4265878, “Dual-Specificity Tyrosine Phosphorylation-Regulated Kinase 1A (DYRK1A) Inhibitors as Potential Therapeutics” (J Med Chem, 2018).

In assay [1] the target is T1, MAP kinase-activated protein kinase 5 (Homo sapiens, UniProt Q8IW41).
T1 sequence (Q8IW41 whole entry): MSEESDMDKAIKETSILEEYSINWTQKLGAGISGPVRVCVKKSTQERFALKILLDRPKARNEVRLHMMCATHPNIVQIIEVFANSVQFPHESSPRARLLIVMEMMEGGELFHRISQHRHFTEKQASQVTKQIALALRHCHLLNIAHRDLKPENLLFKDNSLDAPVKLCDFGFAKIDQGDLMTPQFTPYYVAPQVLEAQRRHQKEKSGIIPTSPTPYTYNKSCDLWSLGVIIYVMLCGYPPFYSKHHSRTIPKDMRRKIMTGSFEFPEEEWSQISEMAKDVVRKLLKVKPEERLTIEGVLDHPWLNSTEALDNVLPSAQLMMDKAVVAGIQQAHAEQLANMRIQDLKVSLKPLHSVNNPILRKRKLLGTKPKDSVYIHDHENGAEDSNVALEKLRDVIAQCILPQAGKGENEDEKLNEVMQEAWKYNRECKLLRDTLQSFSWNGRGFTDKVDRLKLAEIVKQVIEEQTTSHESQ
Description: Inhibition of PRAK (unknown origin).

Assay [2] concerns the target T2, Dual specificity tyrosine-phosphorylation-regulated kinase 1A (Homo sapiens, UniProt Q13627). The assay is described as follows: Inhibition of DYRK1A (unknown origin).
Assay [3] concerns the target T3, Dual specificity tyrosine-phosphorylation-regulated kinase 1B (Homo sapiens, UniProt Q9Y463). Description: Inhibition of DYRK1B (unknown origin).
The target in assay [4] is Cyclin-dependent kinase 9 (Homo sapiens, UniProt P50750). Description: Inhibition of human full-length N-terminal GST-fused CDK9 (1 to 372 residues) expressed in baculovirus expression system using MBP as substrate after 100 mins by TR-FRET assay. A general note: In TR-FRET formats the signal depends on donor and acceptor labels being close together.
In assay [5] the target is T2, Dual specificity tyrosine-phosphorylation-regulated kinase 1A. Description: Inhibition of DYRK1A (unknown origin) at 10 uM relative to control.
For a further assay, the target named is Casein kinase 2 (Rattus norvegicus, UniProt P19139). Description: Inhibition of rat liver CK2 using RRRADDSDDDDD as substrate after 10 mins in presence of [gamma-33P]ATP.
In assay [6] the target is T4, Dual specificity tyrosine-phosphorylation-regulated kinase 2 (Homo sapiens, UniProt Q92630).
T4 sequence (Q92630 whole entry): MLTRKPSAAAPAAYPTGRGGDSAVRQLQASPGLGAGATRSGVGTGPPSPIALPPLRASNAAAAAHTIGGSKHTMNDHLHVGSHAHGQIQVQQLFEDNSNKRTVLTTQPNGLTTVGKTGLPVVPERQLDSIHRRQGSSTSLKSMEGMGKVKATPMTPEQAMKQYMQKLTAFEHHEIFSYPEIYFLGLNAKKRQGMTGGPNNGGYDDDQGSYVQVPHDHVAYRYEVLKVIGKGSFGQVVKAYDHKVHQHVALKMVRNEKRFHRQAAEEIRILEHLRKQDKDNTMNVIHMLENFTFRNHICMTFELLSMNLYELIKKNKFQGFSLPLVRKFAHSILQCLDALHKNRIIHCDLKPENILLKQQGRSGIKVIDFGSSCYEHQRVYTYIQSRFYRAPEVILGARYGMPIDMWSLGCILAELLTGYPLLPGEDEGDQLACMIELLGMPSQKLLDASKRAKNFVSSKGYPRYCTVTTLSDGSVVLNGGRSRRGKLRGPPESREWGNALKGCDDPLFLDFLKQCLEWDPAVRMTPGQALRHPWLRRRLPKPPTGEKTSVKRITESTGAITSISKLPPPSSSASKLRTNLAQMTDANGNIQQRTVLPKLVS
Description: Inhibition of DYRK2 (unknown origin).

Assay [7] concerns the target Dual specificity protein kinase CLK1 (Homo sapiens, UniProt P49759). The assay is described as follows: Inhibition of CLK1 (unknown origin).
In assay [8] the target is Dual specificity protein kinase CLK2 (Homo sapiens, UniProt P49760). Description: Inhibition of CLK2 (unknown origin).
A short description of assay [9]: Inhibition of CLK (unknown origin). More on the design: species or system Homo sapiens.
In assay [10] the target is Glycogen synthase kinase-3 (Homo sapiens, UniProt P49840+P49841). The assay is described as follows: Inhibition of GSK-3 (unknown origin). Format: protein assay.
In the next assay the test system is SW-620. The assay is described as follows: cells. To be noted: Homo sapiens, SW-620, 96 h.
For assay [11], the target named is T3, Dual specificity tyrosine-phosphorylation-regulated kinase 1B. The assay is described as follows: Inhibition of human recombinant full length N-terminal GST-tagged DYRK1B expressed in baculovirus expression system using DYRKtide-F as substrate after 1 hr by electrophoretic analysis.
The target in assay [12] is T2, Dual specificity tyrosine-phosphorylation-regulated kinase 1A. Description: Inhibition of DYRK1A (unknown origin) by cell-based assay.
Assay [13] shares this target. Description: Inhibition of GST-tagged DYRK1A (unknown origin) expressed in Escherichia coli DH5alpha at 1 uM using RRRFRPASPLRGPPK as substrate after 30 mins by kinase-glo luminescence assay relative to control.
For assay [14] the target is unchanged. The assay is described as follows: Inhibition of GST-tagged DYRK1A (unknown origin) expressed in Escherichia coli DH5alpha using RRRFRPASPLRGPPK as substrate after 30 mins by kinase-glo luminescence assay. For orientation: In Kinase-Glo more light means more ATP remaining.
The target is the same in assay [15]. The assay is described as follows: Inhibition of DYRK1A (unknown origin) at 50 uM.
Assay [16] has as its target T5, MAP kinase-activated protein kinase 5 (Homo sapiens) (UniProt Q8IW41).
T5 sequence (whole entry): T1 sequence (Q8IW41 whole entry)
The assay is described as follows: Inhibition of PRAK (unknown origin) at 50 uM.

In assay [17] the target is Aurora kinase B (Homo sapiens) (UniProt Q96GD4). Description: Inhibition of aurora B (unknown origin) at 50 uM.
The target of assay [18] is T6, Amine oxidase [flavin-containing] A (Homo sapiens, UniProt P21397).
T6 sequence (P21397 whole entry): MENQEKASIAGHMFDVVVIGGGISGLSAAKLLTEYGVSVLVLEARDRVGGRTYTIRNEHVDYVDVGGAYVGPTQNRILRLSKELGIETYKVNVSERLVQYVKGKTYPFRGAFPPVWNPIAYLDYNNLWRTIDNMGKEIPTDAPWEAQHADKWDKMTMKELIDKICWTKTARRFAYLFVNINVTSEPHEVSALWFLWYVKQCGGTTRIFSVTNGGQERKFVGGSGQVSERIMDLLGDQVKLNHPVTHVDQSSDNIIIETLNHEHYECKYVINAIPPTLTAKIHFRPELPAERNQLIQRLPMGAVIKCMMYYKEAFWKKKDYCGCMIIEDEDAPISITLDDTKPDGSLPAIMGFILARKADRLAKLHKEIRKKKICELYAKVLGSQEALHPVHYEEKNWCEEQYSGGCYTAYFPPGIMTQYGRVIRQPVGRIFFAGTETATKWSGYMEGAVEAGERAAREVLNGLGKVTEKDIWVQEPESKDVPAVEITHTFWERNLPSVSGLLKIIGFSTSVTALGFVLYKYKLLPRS
Description: Inhibition of human recombinant MAO-A after 1 hr by MAO-Glo assay.

Assay [19] concerns the target T7, Dual specificity tyrosine-phosphorylation-regulated kinase 1A (Rattus norvegicus, UniProt Q63470). Description: Inhibition of rat DYRK1A using KKISGRLSPIMTEQ as substrate in presence of [gamma-33P]ATP after 30 mins by scintillation counting analysis.
Assay [20] concerns the target T7, Dual specificity tyrosine-phosphorylation-regulated kinase 1A. The assay is described as follows: Inhibition of rat recombinant GST-fused DYRK1A expressed in Escherichia coli in presence of [gamma-33P]ATP after 30 mins by scintillation counting analysis.
Assay [21] deals with T2, Dual specificity tyrosine-phosphorylation-regulated kinase 1A. The assay is described as follows: Inhibition of human recombinant full length GST-tagged DYRK1A expressed in baculovirus expression system assessed as decrease in tau phosphorylation at S396 preincubated for 10 mins followed by tau addition by Western blot analysis. (In general: A western blot detects proteins with antibodies after separation by electrophoresis.)

A value given as a limit tells only on which side of the number the result lay.

T3 sequence (Q9Y463 whole entry, the tested form may be a part): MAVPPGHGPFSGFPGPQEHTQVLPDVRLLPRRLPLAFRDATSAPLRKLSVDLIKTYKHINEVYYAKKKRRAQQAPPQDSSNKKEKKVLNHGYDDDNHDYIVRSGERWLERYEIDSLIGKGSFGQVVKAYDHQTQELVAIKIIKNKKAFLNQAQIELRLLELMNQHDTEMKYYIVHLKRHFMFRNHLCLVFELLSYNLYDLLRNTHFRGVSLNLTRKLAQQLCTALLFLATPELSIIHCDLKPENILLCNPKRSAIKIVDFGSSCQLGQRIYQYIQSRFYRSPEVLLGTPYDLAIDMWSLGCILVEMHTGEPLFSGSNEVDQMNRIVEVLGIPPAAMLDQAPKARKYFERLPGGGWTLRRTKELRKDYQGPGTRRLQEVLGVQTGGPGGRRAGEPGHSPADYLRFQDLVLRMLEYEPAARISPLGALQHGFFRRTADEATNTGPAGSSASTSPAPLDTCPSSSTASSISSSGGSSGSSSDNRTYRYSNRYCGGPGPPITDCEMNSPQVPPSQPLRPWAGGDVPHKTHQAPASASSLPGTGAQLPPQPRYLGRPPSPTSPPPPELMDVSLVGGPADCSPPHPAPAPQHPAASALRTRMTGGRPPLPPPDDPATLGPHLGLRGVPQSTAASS
Casein kinase 2, sequence (P67874 whole entry): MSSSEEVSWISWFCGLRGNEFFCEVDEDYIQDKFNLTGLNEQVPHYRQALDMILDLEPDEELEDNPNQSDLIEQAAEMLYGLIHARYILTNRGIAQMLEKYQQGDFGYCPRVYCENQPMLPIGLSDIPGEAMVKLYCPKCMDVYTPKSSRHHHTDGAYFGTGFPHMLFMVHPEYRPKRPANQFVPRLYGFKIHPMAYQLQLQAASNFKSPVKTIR
Casein kinase 2, sequence (P19139 whole entry): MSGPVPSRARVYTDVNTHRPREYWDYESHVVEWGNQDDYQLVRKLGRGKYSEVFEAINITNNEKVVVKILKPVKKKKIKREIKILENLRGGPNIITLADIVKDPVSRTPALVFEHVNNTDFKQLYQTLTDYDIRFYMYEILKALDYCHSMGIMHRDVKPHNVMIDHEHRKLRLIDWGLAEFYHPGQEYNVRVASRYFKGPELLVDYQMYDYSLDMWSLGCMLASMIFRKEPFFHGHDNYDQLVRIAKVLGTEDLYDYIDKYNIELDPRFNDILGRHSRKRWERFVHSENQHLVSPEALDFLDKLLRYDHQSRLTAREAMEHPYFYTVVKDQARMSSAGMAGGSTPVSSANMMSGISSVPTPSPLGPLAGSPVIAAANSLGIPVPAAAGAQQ
Dual specificity protein kinase CLK2, sequence (P49760 whole entry): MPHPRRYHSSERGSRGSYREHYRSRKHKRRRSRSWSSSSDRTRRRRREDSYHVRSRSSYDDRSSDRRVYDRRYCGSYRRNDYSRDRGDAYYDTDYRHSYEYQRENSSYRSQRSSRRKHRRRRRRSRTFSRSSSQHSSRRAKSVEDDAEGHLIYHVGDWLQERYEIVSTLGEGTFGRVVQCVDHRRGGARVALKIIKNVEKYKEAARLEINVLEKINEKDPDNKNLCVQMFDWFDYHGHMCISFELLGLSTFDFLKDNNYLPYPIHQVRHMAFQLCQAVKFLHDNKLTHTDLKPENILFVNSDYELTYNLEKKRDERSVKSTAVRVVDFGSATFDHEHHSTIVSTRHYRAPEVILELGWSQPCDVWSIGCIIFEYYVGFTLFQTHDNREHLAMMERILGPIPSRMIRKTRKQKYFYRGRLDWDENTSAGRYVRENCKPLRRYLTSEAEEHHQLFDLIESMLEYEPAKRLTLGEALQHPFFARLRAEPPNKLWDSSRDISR
Aurora kinase B (Homo sapiens), sequence (Q96GD4 whole entry): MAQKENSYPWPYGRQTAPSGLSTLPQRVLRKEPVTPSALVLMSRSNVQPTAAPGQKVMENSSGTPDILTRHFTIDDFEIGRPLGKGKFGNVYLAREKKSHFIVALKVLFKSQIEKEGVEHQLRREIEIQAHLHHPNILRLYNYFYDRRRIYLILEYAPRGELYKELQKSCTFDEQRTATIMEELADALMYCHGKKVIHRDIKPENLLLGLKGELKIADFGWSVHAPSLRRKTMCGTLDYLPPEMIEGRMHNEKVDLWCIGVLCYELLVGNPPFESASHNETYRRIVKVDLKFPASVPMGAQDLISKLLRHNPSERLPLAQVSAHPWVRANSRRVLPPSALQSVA
Dual specificity protein kinase CLK1, sequence (P49759 whole entry): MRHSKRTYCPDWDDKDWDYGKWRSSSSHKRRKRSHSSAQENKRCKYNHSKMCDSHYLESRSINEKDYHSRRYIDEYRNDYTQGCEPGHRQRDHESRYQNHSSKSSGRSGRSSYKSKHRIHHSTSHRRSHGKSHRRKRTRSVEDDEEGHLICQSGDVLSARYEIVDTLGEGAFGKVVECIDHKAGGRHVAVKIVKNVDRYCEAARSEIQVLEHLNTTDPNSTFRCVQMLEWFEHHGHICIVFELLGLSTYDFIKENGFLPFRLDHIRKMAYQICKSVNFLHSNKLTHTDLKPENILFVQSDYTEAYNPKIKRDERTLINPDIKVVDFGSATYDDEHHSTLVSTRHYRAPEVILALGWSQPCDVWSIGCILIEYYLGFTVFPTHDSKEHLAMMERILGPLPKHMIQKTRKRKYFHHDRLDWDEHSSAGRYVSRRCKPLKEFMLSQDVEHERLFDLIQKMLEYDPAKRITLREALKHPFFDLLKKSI
Cyclin-dependent kinase 9, sequence (P50750 whole entry, the tested form may be a part): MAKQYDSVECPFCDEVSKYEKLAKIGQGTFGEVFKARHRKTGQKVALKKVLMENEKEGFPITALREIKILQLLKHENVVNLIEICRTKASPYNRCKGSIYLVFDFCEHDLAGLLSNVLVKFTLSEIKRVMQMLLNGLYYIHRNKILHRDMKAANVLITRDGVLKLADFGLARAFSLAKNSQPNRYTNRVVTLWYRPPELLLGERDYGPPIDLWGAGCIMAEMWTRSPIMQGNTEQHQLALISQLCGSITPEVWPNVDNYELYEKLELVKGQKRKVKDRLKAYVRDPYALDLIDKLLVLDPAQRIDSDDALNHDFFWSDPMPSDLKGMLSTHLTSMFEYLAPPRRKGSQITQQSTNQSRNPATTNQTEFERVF

Regarding `O=C(O[C@@H]1Cc2c(O)cc(O)cc2O[C@@H]1c1cc(O)c(O)c(O)c1)c1cc(O)c(O)c(O)c1` [EPIGALOCATECHIN GALLATE], it took 1000 nM to reach half-maximal inhibition in assay [1] (IC50).

With `COc1cc(-c2cc(=O)c3c(O)cc(O)c(C/C=C(\C)CCC=C(C)C)c3o2)ccc1O`, the figures for the IC50 in assay [2] and in [3] were 620 nM and 6400 nM, respectively.

In the case of `CCOc1ccccc1CNc1nc(C)nc2[nH]cc(-c3ccnc(N)c3)c12`, the IC50 (usually the concentration that gives 50% inhibition) in [4] was determined as 10 nM.

As for `COc1ccc(-n2cnc3ccc(-c4ccncc4)cc32)cc1`, the inhibition (commonly the relative decrease from the control value, in per cent) in assay [5] fell in the range of 60 to 100%.

As to `COC(=O)c1ccc(-n2cnc3ccc(-c4ccncc4)cc32)cc1`, the inhibition in assay [5] fell in the range of 60 to 100%.

As for `Cc1cc(=O)oc2cc3cc(O)ccc3cc12`, the IC50 on Casein kinase 2 worked out at 32300 nM.

In turn, `CS(=O)(=O)c1ccc(-n2cnc3ccc(-c4ccncc4)cc32)cc1` registered an inhibition in assay [5] of 60 to 100%.

Consider `NC(=O)c1ccc(-n2cnc3ccc(-c4ccncc4)cc32)cc1`, for which the inhibition in [5] fell in the range of 60 to 100%.

For the compound `CN1C(=O)/C(=C\c2ccc3c(c2)OCO3)N=C1N`, the figures for the IC50 in assay [6], in assay [7] and in assay [8] were 490 nM, 100 nM and 910 nM, respectively.

The compound `O=C(O)c1ccc(-n2cnc3ccc(-c4ccncc4)cc32)cc1` displayed an inhibition in assay [5] of 60 to 100%.

Consider `O=C1NC(Nc2ccccc2)=N/C1=C/c1ccc2c(c1)OCO2`, for which the concentration for half-maximal inhibition (IC50) in [9] is 60 to 70 nM; in assay [10], 410 nM.

`CN(C)c1nc2c(Br)c(Br)c(Br)c(Br)c2[nH]1` displayed a half-inhibitory concentration (IC50) in [2] of 400 nM.

Regarding `Cc1cc(=O)oc2cc3c([N+](=O)[O-])c(O)ccc3cc12`, the IC50 at Casein kinase 2 is 370 nM.

`c1cc(-c2ccc3ncn(-c4ccc5[nH]cnc5c4)c3c2)ccn1`: the inhibition in assay [5] lay within 60 to 100%.

Take `COc1cc2[nH]c(=O)c(C(=O)Nc3cc(C(=O)NCc4cccc(Cl)c4)ccc3C)cc2cc1CCCN1CCOCC1`: the half-maximal effective concentration (EC50) – broadly, the concentration needed to bring the measured effect to its halfway point – in the assay with SW-620 is 306 nM.

On to `N=C1NC(=O)/C(=C/c2ccc3c(c2)CCO3)S1`, for which, in assay [11], the IC50 was 24.1 nM.

For `CC(C)[C@H](CO)Nc1nc(Nc2cccc(Cl)c2)c2ncn(C(C)C)c2n1` [PURVALANOLA], it took 300 nM to reach half-maximal inhibition in assay [12] (IC50).

`Brc1c(Br)c(Br)c2[nH]cnc2c1Br`: the IC50 in assay [2] was 2100 nM.

On to `COc1ccc2c3ccnc(C)c3n(CC#N)c2c1`, for which the inhibition in [13] is 92%. In assay [14], this compound registered a 50% inhibitory concentration (IC50) of 81 nM.

Regarding `COc1ccc(/C=C/C(=O)c2c(O)cc(OC)cc2OC)cc1`, the inhibition was found to be 90% in assay [15], 91% in [16] and 84% in assay [17].

In the case of `COc1ccc2c3ccnc(Cl)c3n(CC#N)c2c1`, in assay [13], the inhibition came out at 90%. The IC50 in assay [18] was over 10000 nM.

Take `O=c1[nH]c(NCCO)nc2ccc3[nH]ncc3c12`: the concentration for half-maximal inhibition (IC50) in assay [19] was determined as 610 nM.

In the case of `CC[C@H](CO)Nc1nc(NCc2ccccc2)n2ncc(C(C)C)c2n1`, the IC50 in assay [20] was 1300 nM.

`N#Cc1ccc(-n2cnc3ccc(-c4ccncc4)cc32)cc1` registered an inhibition in assay [5] of 60 to 100%.

Take `COc1ccc2c(c1)[nH]c1c(C)nccc12`: the inhibition in assay [13] is over 60%.

Consider `Cc1nccc2c1[nH]c1cc(O)ccc12`, for which the IC50 in [21] came out at 90 nM.
